Among the test systems are M14 melanoma; LOX IMVI melanoma; MDA-MB-435; ACHN renal; HCT-116 colon; RPMI-8226 leukemia; MALME-3M melanoma; SF-539 CNS; A498 renal; OVCAR-5 ovarian; IGROV1 ovarian; KM12 colon; EKVX NSCLC; T-47D breast.
What all share (test): NCI tumour cell line growth inhibition, 48 h

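All cell lines were grown in 96-well plates and treated with compound for 48 hours. TGI is the concentration that stops growth completely.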

With `COc1cccc2c1C(=O)C1=C(C2=O)C(O)CC(C)(C)O1` (centres undefined), the TGI in the test with M14 melanoma was more than 100 µM; in the test with LOX IMVI melanoma, 57.3 µM; in the test on MDA-MB-435 it was 35.2 µM; in the test with ACHN renal, more than 100 µM; in the test with HCT-116 colon, 63 µM; in the test on RPMI-8226 leukemia, 60.4 µM. The TGI in the test with MALME-3M melanoma is 33.7 µM; in the test with SF-539 CNS, more than 100 µM; in the test on A498 renal, more than 100 µM; in the test on OVCAR-5 ovarian, more than 100 µM; in the test with IGROV1 ovarian it was more than 100 µM; in the test with KM12 colon, 91.2 µM. The TGI in the test on EKVX NSCLC and in the test on T-47D breast was more than 100 µM each time.
On to `Cn1c(=O)c2c3ccccc3n(C)c2n(C)c1=O`, for which the TGI with M14 melanoma, in the test with LOX IMVI melanoma, in the test on MDA-MB-435, in the test with ACHN renal, in the test on HCT-116 colon and in the test on RPMI-8226 leukemia was more than 100 µM in each case. Besides, the TGI in the test on MALME-3M melanoma, in the test with SF-539 CNS, with A498 renal, in the test with OVCAR-5 ovarian, in the test with IGROV1 ovarian and in the test on KM12 colon was more than 100 µM each time. For the same molecule, the TGI with EKVX NSCLC and in the test with T-47D breast was more than 100 µM each time.
On to `N#Cc1cccc2c1Sc1ccccc1N2`, for which the TGI was more than 100 µM with M14 melanoma; 36.5 µM in the test with LOX IMVI melanoma; more than 100 µM in the test with MDA-MB-435; more than 100 µM with ACHN renal; more than 100 µM in the test on HCT-116 colon; more than 100 µM in the test on RPMI-8226 leukemia. The TGI in the test on MALME-3M melanoma was more than 100 µM; in the test on SF-539 CNS, 64.2 µM; with A498 renal, 58.3 µM; in the test with OVCAR-5 ovarian, 72.8 µM; in the test with IGROV1 ovarian it was more than 100 µM; in the test with KM12 colon, more than 100 µM. Moreover, the TGI was 97.4 µM with EKVX NSCLC and more than 100 µM with T-47D breast.
As to `Cn1c2ccc([N+](=O)[O-])cc2c(=O)n1Cc1ccccc1F`, the TGI in the test on M14 melanoma, in the test on LOX IMVI melanoma, with MDA-MB-435, in the test on ACHN renal, with HCT-116 colon and in the test on RPMI-8226 leukemia was more than 100 µM each time. Moreover, the TGI is more than 100 µM with MALME-3M melanoma; 79.6 µM in the test on SF-539 CNS; more than 100 µM in the test on A498 renal; more than 100 µM with OVCAR-5 ovarian; more than 100 µM with IGROV1 ovarian; more than 100 µM with KM12 colon. For the same molecule, the TGI in the test with EKVX NSCLC and with T-47D breast was more than 100 µM throughout.
On to `C1=CC2C=CC(C=C1)P2c1ccccc1` (centres undefined), for which the TGI with M14 melanoma, in the test with LOX IMVI melanoma, with MDA-MB-435, in the test with ACHN renal, in the test on HCT-116 colon and in the test on RPMI-8226 leukemia was more than 100 µM in each case. Further, the TGI with MALME-3M melanoma, in the test with SF-539 CNS, with A498 renal, with OVCAR-5 ovarian, in the test with IGROV1 ovarian and in the test with KM12 colon was more than 100 µM throughout. The TGI with EKVX NSCLC and in the test with T-47D breast was more than 100 µM in each case.
For the molecule `C=C(C)[C@@H]1CCC2=C[C@@H](OC2=O)[C@@H](C(=C)C)C2=CC(C(=O)O)=C(C1)O2`, the TGI with M14 melanoma, in the test on LOX IMVI melanoma, in the test with MDA-MB-435, with ACHN renal, in the test on HCT-116 colon and in the test on RPMI-8226 leukemia was more than 100 µM throughout. Besides, the TGI with MALME-3M melanoma, in the test on SF-539 CNS, in the test on A498 renal, in the test on OVCAR-5 ovarian, in the test on IGROV1 ovarian and with KM12 colon was more than 100 µM each time. Besides, the TGI in the test on EKVX NSCLC and in the test on T-47D breast was more than 100 µM each time.
